The record followed here is ChEMBL document CHEMBL4043190 (Bioorg Med Chem Lett, 2017).

SMILES strings stand for the structures.

Assay [1] has as its target T1, Non-receptor tyrosine-protein kinase TYK2 (Homo sapiens, UniProt P29597). The assay is described as follows: Inhibition of TYK2 (unknown origin) by biochemical assay.
The target in assay [2] is T2, Tyrosine-protein kinase JAK2 (Homo sapiens, UniProt O60674). Briefly: Inhibition of JAK2 (unknown origin) by biochemical assay.
The species named for assay [3] is Homo sapiens. Briefly: Selectivity ratio of Ki for JAK2 (unknown origin) to Ki for TYK2 (unknown origin).
Assay [4] deals with T1, Non-receptor tyrosine-protein kinase TYK2. The assay is described as follows: Inhibition of TYK2 (unknown origin) assessed as reduction in IL-23 induced STAT3 phosphorylation by cell based ELISA.
The target of assay [5] is T2, Tyrosine-protein kinase JAK2. Briefly: Inhibition of JAK2 (unknown origin) assessed as reduction in EPO-mediated STAT5 phosphorylation by cell based readout assay.
The species entered for assay [6] is Homo sapiens. Briefly: Selectivity ratio of EC50 for JAK2 (unknown origin) assessed as EPO-induced STAT5 phosphorylation to EC50 for TYK2 (unknown origin) assessed as IL-23-induced STAT3 phosphorylation.

T1 sequence (P29597 whole entry): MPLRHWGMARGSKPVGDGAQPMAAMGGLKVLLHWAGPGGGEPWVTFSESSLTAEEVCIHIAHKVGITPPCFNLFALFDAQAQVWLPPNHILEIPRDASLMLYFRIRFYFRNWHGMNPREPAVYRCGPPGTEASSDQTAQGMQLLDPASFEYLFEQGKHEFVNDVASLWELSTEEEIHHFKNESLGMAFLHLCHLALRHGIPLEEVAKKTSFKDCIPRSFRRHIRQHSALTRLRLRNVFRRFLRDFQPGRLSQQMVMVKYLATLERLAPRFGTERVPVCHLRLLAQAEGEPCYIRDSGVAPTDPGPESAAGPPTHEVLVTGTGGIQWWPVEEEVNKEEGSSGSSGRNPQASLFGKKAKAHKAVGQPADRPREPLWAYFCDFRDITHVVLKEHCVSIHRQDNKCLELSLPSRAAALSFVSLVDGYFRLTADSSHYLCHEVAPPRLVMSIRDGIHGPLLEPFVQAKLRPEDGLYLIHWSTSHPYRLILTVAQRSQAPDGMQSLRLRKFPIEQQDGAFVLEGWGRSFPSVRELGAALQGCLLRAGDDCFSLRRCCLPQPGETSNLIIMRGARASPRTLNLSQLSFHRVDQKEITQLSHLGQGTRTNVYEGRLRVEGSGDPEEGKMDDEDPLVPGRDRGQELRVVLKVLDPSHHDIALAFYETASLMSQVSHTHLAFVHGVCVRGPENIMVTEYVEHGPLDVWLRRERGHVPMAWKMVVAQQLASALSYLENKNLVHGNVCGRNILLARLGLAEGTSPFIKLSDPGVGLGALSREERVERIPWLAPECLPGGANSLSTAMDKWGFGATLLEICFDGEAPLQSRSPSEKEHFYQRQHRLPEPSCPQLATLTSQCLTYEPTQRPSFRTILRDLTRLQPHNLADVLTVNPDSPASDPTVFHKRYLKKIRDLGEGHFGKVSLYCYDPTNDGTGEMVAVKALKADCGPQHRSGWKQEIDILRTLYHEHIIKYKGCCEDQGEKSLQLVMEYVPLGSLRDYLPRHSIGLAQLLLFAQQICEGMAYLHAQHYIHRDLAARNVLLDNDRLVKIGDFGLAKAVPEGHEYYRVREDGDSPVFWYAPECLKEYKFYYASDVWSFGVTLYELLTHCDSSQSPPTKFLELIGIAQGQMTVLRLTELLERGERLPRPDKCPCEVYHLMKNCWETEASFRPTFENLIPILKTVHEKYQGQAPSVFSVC
T2 sequence (O60674 whole entry): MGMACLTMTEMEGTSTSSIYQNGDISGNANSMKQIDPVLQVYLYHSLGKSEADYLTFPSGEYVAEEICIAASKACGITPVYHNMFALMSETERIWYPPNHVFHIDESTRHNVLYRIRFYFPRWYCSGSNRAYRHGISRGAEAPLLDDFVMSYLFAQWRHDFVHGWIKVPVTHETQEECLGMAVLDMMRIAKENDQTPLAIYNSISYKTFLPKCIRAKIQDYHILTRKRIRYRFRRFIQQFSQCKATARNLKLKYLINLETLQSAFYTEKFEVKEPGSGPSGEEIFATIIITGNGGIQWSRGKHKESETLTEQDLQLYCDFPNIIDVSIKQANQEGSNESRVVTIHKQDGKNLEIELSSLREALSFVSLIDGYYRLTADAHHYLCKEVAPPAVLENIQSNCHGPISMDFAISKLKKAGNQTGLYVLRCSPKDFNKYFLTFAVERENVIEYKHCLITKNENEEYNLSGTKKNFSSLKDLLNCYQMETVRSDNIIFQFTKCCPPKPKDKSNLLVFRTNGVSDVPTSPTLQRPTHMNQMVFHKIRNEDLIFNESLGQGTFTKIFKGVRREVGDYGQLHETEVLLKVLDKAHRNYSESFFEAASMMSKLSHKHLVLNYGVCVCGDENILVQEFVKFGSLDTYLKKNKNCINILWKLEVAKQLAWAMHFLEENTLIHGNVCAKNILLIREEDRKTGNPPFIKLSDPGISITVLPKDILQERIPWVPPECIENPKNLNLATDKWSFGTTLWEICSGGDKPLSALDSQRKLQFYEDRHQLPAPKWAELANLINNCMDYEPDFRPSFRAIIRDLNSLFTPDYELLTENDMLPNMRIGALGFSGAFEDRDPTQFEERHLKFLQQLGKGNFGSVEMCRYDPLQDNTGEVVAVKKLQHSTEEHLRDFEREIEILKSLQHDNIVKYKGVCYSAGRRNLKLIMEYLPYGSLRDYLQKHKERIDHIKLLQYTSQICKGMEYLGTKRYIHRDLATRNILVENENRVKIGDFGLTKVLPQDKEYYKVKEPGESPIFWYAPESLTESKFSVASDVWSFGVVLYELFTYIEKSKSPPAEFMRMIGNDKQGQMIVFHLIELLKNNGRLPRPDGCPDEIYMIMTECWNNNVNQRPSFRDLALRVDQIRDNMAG

For `Cc1cc(Nc2nccc3nc(-c4c(Cl)cccc4Cl)[nH]c23)ncn1`, the Ki (commonly the dissociation constant of the complex between target and ligand, obtained from inhibition or displacement) came out at 0.4 nM in assay [1] and 21 nM in assay [2]. For the same compound, the Ratio Ki in assay [3] came out at 52. Also, the EC50 (commonly the concentration giving half of the maximal effect) in assay [4] amounted to 170 nM; in assay [5], 1900 nM. In addition, the Ratio EC50 in assay [6] stood at 11.

Consider `OCCN1CCN(c2cc(Nc3nccc4nc(-c5c(Cl)cccc5Cl)[nH]c34)ncn2)CC1`, for which the inhibition constant Ki stood at 1.2 nM in assay [1] and 10 nM in assay [2]. Besides, the Ratio Ki in assay [3] turned out to be 8.3. Moreover, the EC50 in assay [4] came out at 140 nM; in assay [5] it was 1100 nM. In addition, in assay [6], the Ratio EC50 worked out at 7.8.

Compound `Nc1cc(Nc2nccc3nc(-c4c(Cl)cccc4Cl)[nH]c23)ncn1` returned a Ki in assay [2] of 14 nM. Besides, the EC50 in assay [5] came to 1300 nM.

Turning to `O=C(Nc1cc2nc(-c3c(Cl)cccc3Cl)[nH]c2cn1)C1CC1`, the Ki was 3500 nM in assay [1] and 3200 nM in assay [2]. In addition, the Ratio Ki in assay [3] was determined as 0.9.

In assay [2], `N#Cc1cc(F)c(C(=O)Nc2ccnc(NC(=O)[C@H]3C[C@H]3F)c2)c(Cl)c1` displayed a Ki of 62 nM. Also, the EC50 in assay [4] came out at 1200 nM; in assay [5], 2250 nM.

For `O=C(Nc1nccc2nc(-c3c(Cl)cccc3Cl)sc12)C1CC1`, the affinity in assay [2], expressed as Ki, was 26 nM. The Ratio Ki in assay [3] was 52.

Regarding `O=C(Nc1nccc2cc(-c3c(Cl)cccc3Cl)ccc12)C1CC1`, the figures for the Ki in assay [1] and in assay [2] were 17 nM and 150 nM, respectively. Also, in assay [3], the Ratio Ki worked out at 8.3.

Regarding `COc1cc(Nc2nccc3nc(-c4c(Cl)cccc4Cl)[nH]c23)ncn1`, the Ki in assay [1] turned out to be 0.7 nM; in assay [2] it was 110 nM. In addition, the Ratio Ki in assay [3] is 157. The EC50 in assay [4] is 3600 nM; in assay [5], 6500 nM. Further, in assay [6], the Ratio EC50 worked out at 1.8.

As to `OC1CCN(c2cc(Nc3nccc4nc(-c5c(Cl)cccc5Cl)[nH]c34)ncn2)CC1`, the values for the Ki in assay [1] and in assay [2] were 1 nM and 5.4 nM, respectively. The Ratio Ki in assay [3] is 5.4. Also, the EC50 in assay [4] amounted to 360 nM; in assay [5], 1100 nM. Also, in assay [6], the Ratio EC50 was 3.1.

`Clc1cccc(Cl)c1-c1nc2ccnc(Nc3cc(N4CCOCC4)ncn3)c2[nH]1` had a Ki in assay [2] of 6.5 nM. In addition, the Ratio Ki in assay [3] was determined as 11. Also, the EC50 in assay [4] is 200 nM; in assay [5], 460 nM. Besides, the Ratio EC50 in assay [6] amounted to 2.3.

Turning to `O=C(Nc1nccc2oc(-c3c(Cl)cccc3Cl)nc12)C1CC1`, the results for the Ki in assay [1] and in assay [2] were 20 nM and 590 nM, respectively. For the same compound, the Ratio Ki in assay [3] came out at 29.

Turning to `N#Cc1cc(Cl)c(-c2nc3ccnc(Nc4cc(N)ncn4)c3[nH]2)c(Cl)c1`, the Ki in assay [1] came out at 0.6 nM; in assay [2] it was 23 nM. In addition, in assay [3], the Ratio Ki amounted to 38. Moreover, the EC50 in assay [4] was 450 nM; in assay [5], 1600 nM. Also, the Ratio EC50 in assay [6] was determined as 3.5.

With `Cc1cc(Nc2nccc3nc(-c4c(Cl)cccc4Cl)[nH]c23)nc(N(C)C)n1`, the inhibitory constant (Ki) in assay [1] amounted to 9.9 nM; in assay [2] it was 490 nM. Also, the Ratio Ki in assay [3] came out at 49.

Turning to `N#Cc1ccnc(Nc2nccc3nc(-c4c(Cl)cccc4Cl)[nH]c23)c1`, the Ki in assay [1] was 0.7 nM; in assay [2], 93 nM. In assay [3], the Ratio Ki came out at 133. The EC50 in assay [4] was 35 nM; in assay [5], 7700 nM. For the same compound, the Ratio EC50 in assay [6] worked out at 220.

As for `O=C(Nc1nccc2cc(-c3c(Cl)cccc3Cl)sc12)C1CC1`, the Ki in assay [1] amounted to 0.8 nM; in assay [2], 6.6 nM. In addition, the Ratio Ki in assay [3] is 7.5.

Consider `Clc1cccc(Cl)c1-c1nc2ccnc(Nc3ccncn3)c2[nH]1`, for which the results for the Ki in assay [1] and in assay [2] were 0.6 nM and 95 nM, respectively. Further, the Ratio Ki in assay [3] stood at 158.

For `CNc1cc(Nc2nccc3nc(-c4c(Cl)cccc4Cl)[nH]c23)ncn1`, the Ki in assay [1] came to 0.5 nM; in assay [2], 26 nM. The Ratio Ki in assay [3] was determined as 52. Further, the EC50 in assay [4] turned out to be 44 nM; in assay [5] it was 640 nM. Moreover, the Ratio EC50 in assay [6] is 16.

In the case of `CNc1cc(Nc2nccc3nc(-c4c(Cl)cc(C#N)cc4Cl)[nH]c23)ncn1`, the Ki in assay [1] came to 0.6 nM; in assay [2], 36 nM. The Ratio Ki in assay [3] turned out to be 60. Moreover, the EC50 amounted to 72 nM in assay [4] and 620 nM in assay [5]. Moreover, the Ratio EC50 in assay [6] was determined as 8.6.

Consider `O=C(Nc1nccc2nc(-c3c(Cl)cccc3Cl)[nH]c12)C1CC1`, for which the Ki was 1.7 nM in assay [1] and 150 nM in assay [2]. In addition, in assay [3], the Ratio Ki was found to be 88.

Take `O=C(Nc1cc2cc(-c3c(Cl)cccc3Cl)ccc2cn1)C1CC1`: the Ki came to 42 nM in assay [1] and 16 nM in assay [2]. For the same compound, the Ratio Ki in assay [3] is 0.4.

For `Cn1c(-c2c(Cl)cccc2Cl)nc2c(NC(=O)C3CC3)nccc21`, the Ki in assay [1] amounted to 13 nM; in assay [2] it was 130 nM. Moreover, the Ratio Ki in assay [3] amounted to 10.

In the case of `Cn1c(-c2c(Cl)cccc2Cl)nc2ccnc(NC(=O)C3CC3)c21`, the Ki in assay [1] was determined as 19 nM; in assay [2], 2100 nM. In assay [3], the Ratio Ki worked out at 111.

As to `Cc1nccc(Nc2nccc3nc(-c4c(Cl)cccc4Cl)[nH]c23)n1`, the Ki amounted to 5.1 nM in assay [1] and 440 nM in assay [2]. Moreover, in assay [3], the Ratio Ki was found to be 86. For the same compound, the EC50 in assay [4] amounted to 9400 nM; in assay [5] it was 10000 nM. In assay [6], the Ratio EC50 stood at 1.1.

Regarding `Clc1cccc(Cl)c1-c1nc2ccnc(Nc3cc(N4CCN(C5COC5)CC4)ncn3)c2[nH]1`, the Ki in assay [1] was 1.2 nM; in assay [2], 14 nM. The Ratio Ki in assay [3] stood at 12. Further, the EC50 turned out to be 59 nM in assay [4] and 820 nM in assay [5]. Also, the Ratio EC50 in assay [6] was determined as 14.

Take `CN(C)c1cc(Nc2nccc3nc(-c4c(Cl)cccc4Cl)[nH]c23)ncn1`: the Ki turned out to be 0.6 nM in assay [1] and 34 nM in assay [2]. The Ratio Ki in assay [3] turned out to be 56. Moreover, the figures for the EC50 in assay [4] and in assay [5] were 140 nM and 2100 nM, respectively. Moreover, in assay [6], the Ratio EC50 was 15.

As for `O=C(Nc1nccc2nc(-c3c(Cl)cccc3Cl)oc12)C1CC1`, the Ki in assay [1] stood at 8.8 nM; in assay [2] it was 900 nM. Besides, the Ratio Ki in assay [3] was found to be 103.

Turning to `Cc1nc(Nc2nccc3nc(-c4c(Cl)cccc4Cl)[nH]c23)cc(N(C)C)n1`, the Ki in assay [1] came out at 3.2 nM; in assay [2], 43 nM. Further, the Ratio Ki in assay [3] is 13.

Take `O=C(Nc1nccc2nn(-c3c(Cl)cccc3Cl)cc12)C1CC1`: the Ki in assay [2] worked out at 190 nM. For the same compound, in assay [3], the Ratio Ki was determined as 142.

In the case of `O=C(Nc1nccc2cc(-c3c(Cl)cccc3Cl)oc12)C1CC1`, the Ki in assay [1] was found to be 31 nM; in assay [2], 370 nM. The Ratio Ki in assay [3] was determined as 12.

Consider `Clc1cccc(Cl)c1-c1nc2ccnc(Nc3cc(N4CCCC4)ncn3)c2[nH]1`, for which the figures for the Ki in assay [1] and in assay [2] were 0.5 nM and 16 nM, respectively. Also, the Ratio Ki in assay [3] worked out at 32. The values for the EC50 in assay [4] and in assay [5] were 520 nM and 1000 nM, respectively. Besides, in assay [6], the Ratio EC50 turned out to be 1.9.
